Measurements as given in patent publication US7033829B2, “Method to inhibit cell growth using oligonucleotides” (Trustees of Boston University, priority 2000, dated 2006).
Oligonucleotides are written 5' to 3', each unit as a sugar letter and its base; * is a phosphorothioate linkage, no mark a phosphodiester; rarer units and linkages stand in square brackets, end groups in braces. Plain capitals give the bases only. d = 2'-deoxy (DNA); {P} = phosphate

How the values were obtained:
[1] = tested on: p53, E2F1; test: Western analysis of p53 and E2F1 in Jurkat cells; assay type: cell-based, human; settings: by 24 hours
Description: Oligonucleotides homologous to the telomere overhang repeat sequence (TTAGGG; SEQ ID NO:11), sequence (11mer-1: pGTTAGGGTTAG; SEQ ID NO: 5), complementary to this sequence (11mer-2: pCTAACCCTAAC; SEQ ID NO: 9) and unrelated to the telomere sequence (11mer-3: pGATCGATCGAT; SEQ ID NO: 10) were added to cultures of Jurkat cells, a line of human T cells, one of the cell types reported to undergo apoptosis in response to telomere disruption. Within 48 hours, 50% of the cells treated with 40 μM of SEQ ID NO: 5 had accumulated in the S phase, compared to 25–30% for control cells (p<0.0003, non-paired t-test; see FIGS. 19A–19D), and by 72 hours, 13% of these cells were apoptotic as determined by a sub-G0/G1 DNA content, compared to 2–3% of controls (p<0.007, non-paired t-test; see FIGS. 19E–19H). At 96 hours, 20±3% of the 11mer-1 treated cells were apoptotic compared with 3–5% of controls (p<0.0001, non-paired t-test). […] The fluorescence intensity of the cells was the same after all treatments at 4 hours and 24 hours.
Cells were plated at a density of 180,000 cells/ml in RPMI 1640 medium supplemented with 3% FBS. […] TUNEL-positive cells were detected by FACS analysis and confocal microscopy. […] Uptake of the oligonucleotides was assessed in 5–10 μm sections with a Carl Zeiss LSM 510 confocal laser microscope. […] Fluorescence was measured on the FL-1 channel. […]

[2] = tested on: p53-null H1299 lung carcinoma cells; test: Cell growth of p53-null H1299 cells; assay type: cell-based, human; settings: 100 μM; days 1–4
Source text: Both the GADD 45 and SDI 1 genes are known to be transcriptionally regulated by the tumor suppressor protein p53. After UV- and γ-irradiation, as well as treatment of cells with DNA-damaging chemical agents, there is a rapid stabilization, phosphorylation and nuclear accumulation of p53 after which this protein binds to specific promoter consensus sequences and modulates the transcription of regulated genes. […] In order to determine whether the inhibitory effect of the dinucleotide pTpT on cell proliferation is mediated in part through p53, the growth response of a p53 null cell line, H1299 lung carcinoma cells, was examined. The p53-null H1299 cells (Sanchez, Y. et al., Science 271:357–360 (1996)) were maintained in DMEM with 10% calf serum. Preconfluent cultures were given fresh medium supplemented with either 100 μM pTpT or diluent. Cells were collected on consecutive days by trypsinization, and counted by Coulter™ counter.

[3] = tested on: Primary newborn fibroblasts; test: Protection of fibroblasts against H2O2; assay type: cell-based; settings: for cell yields higher compared to diluent pre-treated control: 10 μM 3 days, within 72 hours
Description: Primary newborn fibroblasts were treated for 3 days with 10 μM pTpT or diluent as control and then treated with 5×10^−5 or 5×10^−4 M H2O2. Within 72 hours of H2O2 exposure, cell yields of pTpT pre-treated cultures were 45±1% and 139±5% higher, respectively, compared to diluent pre-treated control samples. 72 hours after exposure of the […] H2O2 dose, only 9.6±2.4% of the diluent pre-treated cells survived.

[4] = tested on: T cell proliferation; test: Allogenic mixed lymphocyte reaction with keratinocyte culture medium; assay type: cell-based, human; settings: >10 kD components of culture medium from 72 hour sample
Description: The immunomodulatory effect of pTpT was tested in vitro using human keratinocytes. Duplicate cultures of primary human keratinocytes were treated with pTpT, diluent or UVB irradiation (200 J/m^2) or sham irradiation. Cells were collected at various times after treatment and analyzed for IL-10 protein by ELISA and for IL-10 mRNA by RT-PCR. An increase in IL-10 mRNA was detected after 6 hours in irradiated cells and after 48 hours in pTpT treated cells. An increase in IL-10 protein of 18 pg/ml was detected 24 hours after irradiation and 15±2 pg/ml 72 hours after treatment with pTpT. […] In the allogenic MLR, T cell activation is measured as lymphocyte proliferation, measured by ^3H-thymidine incorporation. IL-10 activity of culture medium from the 72 hour pTpT sample was measured by addition of the >10 kD components (containing the 18 kD IL-10 protein). […] Thus, like UVB irradiation, pTpT induces IL-10 in human keratinocytes which is likely to cooperate with TNFα to inhibit contact hypersensitivity in pTpT treated skin.

Substance	E2F1 level [1]	p53 level [1]	proliferation compared to diluent-treated controls [2]	cell yields higher compared to diluent pre-treated control ([3]; 5×10^−4 M H2O2) [%]	cell yields higher compared to diluent pre-treated control ([3]; 5×10^−5 M H2O2) [%]	increase of cell survival ([3]; 5×10^−4 M H2O2)	protection of cell survival ([3]; low H2O2 dose)	reduction in T cell proliferation [4] [%]
pGTTAGGGTTAG (DNA {P}-dGdTdTdAdGdGdGdTdTdAdG) [SEQ ID NO: 5]	concomitant increase in the level of the E2F1 transcription factor	an increase in p53						
thymidine dinucleotide [pTpT]			no inhibition of proliferation	139±5	45±1	2–9 fold	complete protection	80±5
